Article PMC5855875, “Teixobactin analogues reveal enduracididine to be non-essential for highly potent antibacterial activity and lipid II binding” (Chemical Science, 2017)
In brackets after ≈: the same amount, converted by molar mass. Bridge positions count the residues as written; N and C are the ends. Square brackets hold non-standard residues; d marks the D form. Peptide text beside a SMILES is read from it. d(aIle) = CC[C@H](C)[C@@H](N)C(=O)O; dNMeF = CN[C@H](Cc1ccccc1)C(=O)O

How the values were obtained:
[1] = system: MRSA 2: MRSA DR 42412 (sputum); test: microbe, parasite or virus in culture; details: for MIC (with polysorbate 80): MRSA 2, MHB containing polysorbate 80 (0.002%, v/v)
Method: (§1) VIII. MIC testing (extended panel)
(§2) Bacterial cultures were grown overnight i n Mueller-Hinton Agar (MHA) plates and adjusted to a final concentration of 10 5 – 106 CFU/ml. 100 µl of inoculum in Meuller -Hinton broth (MHB) was mixed with equal volume of peptides (dissolved in MHB) at 2x their concentration in a 96 well plate. In parallel experiments, MIC values were determined in the media containing polysorbate 80 (0 .002%, v/v) to […]
(§3) prevent non-specific adsorption of the peptides to plastic surfaces. The final peptides concentrations […]
(§4) Positive and negative controls contained 200 µl of inoculum without any peptide dissolved in broth, respectively. The 96 well plates were then incubated at 37 °C for 24 h. […]
(§5) 80. Strain information: MRSA 1: MRSA ATCC 700699, MRSA 2: MRSA DR 42412 (sputum), MRSA
(§6) 3: MRSA DM21455 (eye). […] Staphylococcus aureus ATCC

[2] = system: MRSA 3: MRSA DM21455 (eye); test: microbe, parasite or virus in culture; details: for MIC (with polysorbate 80): MRSA 3, MHB containing polysorbate 80 (0.002%, v/v)
Method: as §1, §2, §3
(§7) Positive and negative controls contained 200 µl of inoculum without any peptide dissolved in broth, respectively. The 96 well plates were then incubated at 37 °C for 24 h.
(§8) All the experiments were performed in two independent duplicates and the MIC was determined as the […]
(§9) Minimum bactericidal concentration
(§10) The lowest concentration in which no visible colonies could be detected was taken as the MBC.
as §5, §6

[3] = system: MRSA 1: MRSA ATCC 700699; test: microbe, parasite or virus in culture; details: for MBC: plated on MHA; for MBC / MIC (with polysorbate 80): 24 h; for MIC (with polysorbate 80): MRSA 1, MHB containing polysorbate 80 (0.002%, v/v), two independent duplicates
Method: as §1, §2, §3, §7, §8, §9, §10, §5, §6

[4] = system: Staphylococcus aureus ATCC 29213; test: microbe, parasite or virus in culture; details: for MIC (without polysorbate 80): ATCC 29213, 24 h; for MIC (with polysorbate 80): S. aureus ATCC 29213, MHB containing polysorbate 80 (0.002%, v/v); for MIC (with polysorbate 80) / MBC: 37 °C, 24 h; for MBC: Staphylococcus aureus ATCC 29213, plated on MHA
Method: as §1, §2, §3, §7, §8, §9, §10, §5, §6

[5] = system: MRSA DM21455; test: Time-kill kinetics; assay type: cell-based, Methicillin-resistant Staphylococcus aureus; details: 0.5 μg mL^–1; MHB containing 0.002% v/v polysorbate 80; 37 °C; average of two independent experiments
Method: IX. Time-dependent killing of bacteria by teixobactin analogues 12 and 13 Time-kill kinetics against MRSA DM21455 strains (clinical isolates from patients) was carried out in MHB. Cultures were grown overnight in MHA plates and adjusted to a final inoculum of 10^5 – 10^6 CFU/ml in MHB (containing 0.002% v/v, polysorbate 80) with teixobactin analogues 12 and 13 maintained at a final concentration of 0.5 µg/ml. For vancomycin, the concentration was varied from 0.5 – 16 µg/ml without polysorbate 80. The tubes were then incubated at 37 °C. 100 µl of cell suspension was withdrawn at various time points (0, 2, 4, 8, 24 h), serially diluted (101-105 fold dilutions) and plated onto a MHA plates and incubated for 24 h at 37 °C.
Colonies were then enumerated […]. Colony counting too numerous to count (>300 colonies) was taken as 1010 CFU. Average values from two independent experiments are reported. […]
(§11) (also on this page, place not known: polyso rbate vancomycin , concentr ation 80 . wer e µ l (10 1-105 10 10 previously n - TL C three S76: (Ala10-teixobactin) literature.7 Lipid II Lipid II: Compound 8 = 1:1 Lipid II: Compound 16 = 1:1 Lipid II: Compound 8 = 1:2 Lipid II: Compound 16 = 1:2 Lipid II: Compound 8 = 1:4)

[6] = system: MRSA ATCC 33591; test: microbe, parasite or virus in culture
Method: (§12) were grown in Mueller Hinton broth (Oxoid) in triplicate. All incubations were at 37°C. Dilutions were carried out in triplicate. 100 µl of autoclaved Mueller Hinton broth was added to wells 2-12 in a 96-well plate. 200 µl of the peptide was added to well one at a concentration of 256 µg/mL. 100µl of peptide in well one was taken up and pipetted into well two. The mixture was then mixed via pipetting before 100µl was taken up and pipetted into well three. This process was repeated up to well 11. Once […]
(§13) peptide present. Thus, the concentrations (in µg/mL) were: 256, 128, 64, 32, 16, 8, 4, 2, 1, 0.5, 0.25 and no peptide present. Each well was then inoculated with 100µl of bacteria that had been diluted to an […]
(§14) This was repeated three times. The 96-well plates were then incubated at 37°C for 24 hours. The MIC was determined to be the lowest concentration at which there was no growth visible. […]
(§15) was repeated at an altered initial concentration of 64 µg/ml. Therefore, the new concentrations for MIC […]
as §1, §2

[7] = Lipid II TLC binding assay; details: peptide : lipid II 2 : 1; 50 mM Tris/HCl, pH 7.5, 30 min, room temperature; three independent experiments
Method: X. Complex formation of teixobactin with lipid II and geranyl pyrophosphate Complex formation of teixobactin analogues 8 (Ala10-teixobactin) and 16 (Arg10-teixobactin) with lipid II and geranyl pyrophosphate was performed using TLC as described previously.7 Binding of teixobactin to lipid II and geranyl pyrophosphate was analysed by incubating 30 µL of 2 nmol of each precursor with 2 or 4 nmoles of teixobactin in 50 mM Tris/HCl, pH 7.5, for 30 min at room temperature. Complex formation was analysed by extracting unbound precursors from the reaction mixture with 30 µL n- butanol/6M pyridine acetate (pH 4.2) (2:1; vol/vol) followed by TLC analysis of the organic layer using chloroform/methanol/water/ammonia (88:48:10:1, v/v/v/v) as the solvent and detection of lipid/phosphate containing precursors by phosphomolybdic acid staining. The TLC figures represent the results obtained through thr ee independent experiments.
Figure S76 : Binding of teixobactin analogues 8 (Ala10-teixobactin ) and 16 (Arg10-teixobactin) with lipid II using the protocols described in literature .7 Partial binding is observed when the ratio of lipid II to the analogue is 1:1 (indicated by lighter spots on the TLC) and complete binding is observed when the ratio of lipid II to the analogue is 1:2 in case of analogue 16 and 1:4 in case of analogue 8 (indicated […]
as §11

[8] = system: VRE 1: VRE ATCC 700802; test: organism not typed; details: for MIC (with polysorbate 80): VRE 1, MHB containing polysorbate 80 (0.002%, v/v), 37 °C, 24 h
Method: as §1, §2, §3, §4, §5, §6

[9] = system: VRE 2: VRE ATCC 29212; test: organism not typed; details: for MIC (with polysorbate 80): VRE 2, MHB containing polysorbate 80 (0.002%, v/v), 37 °C, 24 h
Method: as §1, §2, §3, §4, §5, §6

[10] = system: M. smegmatis ATCC 607; test: microbe, parasite or virus in culture
Method: as §12, §13, §14, §15
Middlebrook 7H9 broth (SIGMA) supplemented to 5% Middlebrook ADC (SIGMA) growth

[11] = system: rabbit erythrocytes; assay type: cell-based; details: rabbit erythrocytes 4% v/v; peptides 0.195 – 250 µg/ml; 37°C, 1 h; haemoglobin release spectrophotometrically; average of triplicate experiments
Method: Fig. 5 Hemolytic activity of teixobactin analogues 12 and 13 for rabbit erythrocytes. The blood cells were exposed to various concentrations of peptides for 1 h and the release of haemoglobin was determined spectrophotometrically. Each value represents an average of triplicate experiments.
Cytotoxicity assay by Formazan bioreduction
Medium (DMEM) supplemented with 10% serum. The cells were repeatedly rinsed with Hank’s
in HBSS 24 hrs post-seeding.
were incubated for 3 hrs at 37°C.
XII. Haemolytic Assay Protocol
Hemolytic assay was performed

[12] = MRSA 1 (MRSA ATCC 700699), 37 °C

Compound	MIC (without polysorbate 80) ([1]; 2: DR 42412 (sputum, 24 h)) [µg/mL]	MIC (with polysorbate 80) ([1]; 37 °C, 24 h) [µg/mL]	MIC (without polysorbate 80) ([2]; 3: DM21455 (eye, 24 h)) [µg/mL]	MIC (with polysorbate 80) ([2]; 37 °C, 24 h) [µg/mL]	MIC (without polysorbate 80) ([3]; ATCC 700699, 24 h) [µg/mL]	MBC [3, 12] [μg mL^–1]	MIC (with polysorbate 80) ([3]; 37 °C) [µg/mL]	MIC (without polysorbate 80) [4] [µg/mL]	MIC (with polysorbate 80) [4] [µg/mL]	MBC [4] [μg mL^–1]	lipid II spot on TLC [7]	MIC (without polysorbate 80) ([8]; ATCC 700802, 24 h) [µg/mL]	MIC (with polysorbate 80) [8] [µg/mL]	MIC (without polysorbate 80) ([9]; ATCC 29212, 24 h) [µg/mL]	MIC (with polysorbate 80) [9] [µg/mL]	other results
CC[C@H](C)[C@H](NC(=O)[C@@H](Cc1ccccc1)NC)C(=O)N[C@@H](CO)C(=O)N[C@H](CCC(N)=O)C(=O)N[C@@H](C(=O)N[C@H](C(=O)N[C@@H](CO)C(=O)N[C@H]1C(=O)N[C@@H](C)C(=O)N[C@@H](CC(C)C)C(=O)N[C@@H]([C@@H](C)CC)C(=O)O[C@H]1C)[C@@H](C)CC)[C@@H](C)CC [Compound 13, Leu10-teixobactin] (H-[dNMeF]IS[dQ][d(aIle)]IS[dT]ALI; ester 8-C)	2 (≈ 1.66 µM)	≤ 0.0625	2 (≈ 1.66 µM)	≤ 0.0625	2 (≈ 1.66 µM)	2	0.25 (≈ 0.208 µM)	1 (≈ 0.832 µM)	≤ 0.0625	0.125	complete disappearance of the lipid II spot	2 (≈ 1.66 µM)	0.25 (≈ 0.208 µM)	2 (≈ 1.66 µM)	0.25 (≈ 0.208 µM)	MIC ([1]; 2: DR 42412 (sputum, 24 h)): ≤0.0625 μg mL^–1; MIC ([2]; 3: DM21455 (eye, 24 h)): ≤0.0625 μg mL^–1; MIC ([3]; ATCC 700699, 24 h): 0.25 μg mL^–1; time to complete bactericidal activity [5]: ≤ 8 h; MIC ([6]; ATCC 33591, 24 h): 0.25 μg mL^–1; MIC ([8]; ATCC 700802, 24 h): 0.25 μg mL^–1; MIC ([9]; ATCC 29212, 24 h): 0.25 μg mL^–1; MIC ([10]; ATCC 607, 72 h): ~1 μg mL^–1
CC[C@H](C)[C@H](NC(=O)[C@@H](Cc1ccccc1)NC)C(=O)N[C@@H](CO)C(=O)N[C@H](CCC(N)=O)C(=O)N[C@@H](C(=O)N[C@H](C(=O)N[C@@H](CO)C(=O)N[C@H]1C(=O)N[C@@H](C)C(=O)N[C@@H](CCCNC(=N)N)C(=O)N[C@@H]([C@@H](C)CC)C(=O)O[C@H]1C)[C@@H](C)CC)[C@@H](C)CC [Compound 16, Arg10-teixobactin]	2 (≈ 1.61 µM)	0.125 (≈ 0.1 µM)	4 (≈ 3.21 µM)	0.5 (≈ 0.402 µM)	4 (≈ 3.21 µM)	2	1 (≈ 0.804 µM)	2 (≈ 1.61 µM)	0.25 (≈ 0.201 µM)	1	complete disappearance of the lipid II spot	4 (≈ 3.21 µM)	2 (≈ 1.61 µM)	4 (≈ 3.21 µM)	2 (≈ 1.61 µM)	MBC ([1]; MRSA 2 (MRSA DR 42412), plated on MHA, 37 °C, 24 h): 0.5 μg mL^–1; MIC ([1]; MRSA 2 (MRSA DR 42412, sputum, clinical isolate), Mueller Hinton broth, 37 °C, 24 h (Table 2)): 0.125 μg mL^–1; MBC ([2]; MRSA 3 (MRSA DM21455), plated on MHA, 37 °C, 24 h): 1 μg mL^–1; MIC ([2]; MRSA 3 (MRSA DM21455, eye, clinical isolate), Mueller Hinton broth, 37 °C, 24 h (Table 2)): 0.5 μg mL^–1; MIC ([3]; MRSA 1 (MRSA ATCC 700699), Mueller Hinton broth, 37 °C, 24 h (Table 2)): 1 μg mL^–1; MIC ([6]; MRSA ATCC 33591, Mueller Hinton broth (Oxoid), peptides in DMSO containing 0.002% polysorbate 80, 37°C, 24 h, triplicate): 2 μg mL^–1; MIC ([8]; VRE 1 (Enterococcus faecalis VRE ATCC 700802), Mueller Hinton broth (Table 2)): 2 μg mL^–1; MIC ([9]; VRE 2 (Enterococcus faecalis VRE ATCC 29212), Mueller Hinton broth (Table 2)): 2 μg mL^–1; MIC ([10]; M. smegmatis ATCC 607, Middlebrook 7H9 broth with 5% ADC, 37°C, 140RPM, reading after 72 hours): 1–2 μg mL^–1
melittin	–	–	–	–	–	–	–	–	–	–	–	–	–	–	–	haemolytic activity [11]: substantial haemolytic activity
